Legend:
[1] = test system: spontaneous marble-burying behaviour of mice; experiment: Marble-burying test in mice; type: in vivo; details: male NMRI mice, 30 minutes' free exploration, s.c.
Description: This test enables evaluation of the capacity of pharmacological agents to inhibit the spontaneous marble-burying behaviour of mice, the inhibition being predictive of antidepressant and/or anti-impulsive action. Male mice of the NMRI strain (Iffa-Credo, l'Arbresle, France) weighing from 20 to 25 g on the day of the experiment are placed individually in Macrolon® boxes (30×18×19 cm) containing 5 cm of sawdust and covered with a perforated plexiglass plate. Twenty-four “tiger's eye” glass marbles are evenly distributed on the sawdust at the periphery of the box. At the end of 30 minutes' free exploration, the animals are removed from the box and the number of buried marbles is counted.

[2] = test system: level of serotonin, noradrenalin and dopamine in cingulate frontal cortex; experiment: Microdialysis experiment in the rat; type: in vivo; details: rat frontal cortex dialysate, 10 mg/kg subcutaneously
Method: Rats are anaesthetised with pentobarbital (60 mg/kg i.p.). They are placed in a Kopf stereotactic device and the cannula guide is implanted in the cingulate frontal cortex in accordance with the coordinates described in the Paxinos and Watson atlas (1982) as follows: AP=+2.2; L=±0.6; DV=−0.2. The rats are placed in separate cages and are not used in dialysis until 5 days later. […] The probe is perfused at a flow rate of 1 μl/mn with a solution of 147.2 mM NaCl, 4 mM KCl and 2.3 mM CaCl2 adjusted to pH 7.3 with a phosphate buffer (0.1 M). Two hours after implantation, samples are collected every 20 minutes for 4 hours. Three baseline samples are taken before administration of the products to be tested. The rats are left in their individual cages for the whole of the experiment. When the experiment is finished, the rats are decapitated and the brain is removed and frozen in isopentane. Sections of a thickness of 100 μm are cut and stained with cresyl violet, which allows verification of the location of the probes.
The simultaneous quantification of dopamine, norepinephrine and serotonin is carried out as follows: 20 μl dialysis samples are each diluted with 20 μl of mobile phase (NaH2PO4: 75 mM, EDTA: 20 μM, sodium 1-decanesulphonate: 1 mM, methanol: 17.5%, triethylamine: 0.01%, pH: 5.70) and 33 μl samples are analysed by HPLC using a reverse phase column thermostatically maintained at 45° C. and quantified by means of a coulometric detector. The potential of the first electrode of the detector is set at −90 mV (reduction) and that of the second at +280 mV (oxidation). The mobile phase is injected at a flow rate of 2 ml/mn using a pump. The sensitivity limits for dopamine, norepinephrine and serotonin are 0.55 fmol per sample. All the products of the invention are injected subcutaneously in a volume of 1.0 ml/kg. The products are dissolved in distilled water to which a few drops of lactic acid have been added if necessary.

Structure (SMILES) | Marble-burying in mice, ID50 (inhibitory dose50) [1] | increase of the level of dopamine (maximum % of the effect compared with the baseline level defined as 0%) [2] | increase of the level of noradrenalin (maximum % of the effect compared with the baseline level defined as 0%) [2] | increase of the level of serotonin (maximum % of the effect compared with the baseline level defined as 0%) [2]
CNCCC(Oc1ccc(C(F)(F)F)cc1)c1ccccc1 (centres unmarked) [Fluoxetine, fluoxetine, reference compound] | 8.03 mg/kg s.c. |  |  | 
CN(C)CC1(C2(O)CCCCC2)Cc2cc3occc3cc21 (centres unmarked) [Example 5, 1-{5-[(Dimethylamino)methyl]-5,6-dihydrocyclobuta[f][1]benzofuran-5-yl}cyclohexanol] | 0.6 mg/kg s.c. | 400±50% | 500±13% | 250±15%

— patent publication US6420413B2, “Heterocycloalkylbenzocyclobutane and heteroarylbenzocyclobutane compounds” (Les Laboratories Servier, priority 2000, dated 2002)
